Read-outs that look alike come from different tables or passages of the source.
Tests used:
[1] = system: mucin content in the airway epithelium; test: Airway epithelial mucin content (PAFS staining, mucin volume density) in OVA sensitized and challenged mice; type: in vivo, BALB/c mice; settings: for reduction in mucin content: high dose: dexamethasone 4 mg/kg/day
Description: (§1) Six-week to eight-week-old BALB/c mice (Jackson Animal Laboratory, Bar Harbor, Me.) were housed under specific pathogen-free conditions.
(§2) Mice were immunized against allergen by means of sensitization (once weekly intraperitoneal injection on days 0, 7, and 14) and challenge (once daily intranasal instillation for 5 days on days 41-45) with ovalbumin (OVA) as described (FIG. 1) (19).
(§3) Untreated sensitized and challenged mice or mice that had not undergone the sensitization and challenge process, received vehicle and were fed with normal mouse chow. […] Experimental mice were sacrificed on day 46.
Lungs were perfused with 4% paraformaldehyde in PBS (pH 7.0) via a tracheal cannula at room temperature, then removed from the thoracic cavity and further fixed overnight at 4° C. (25). After overnight fixation, lungs were embedded in paraffin and then sectioned and stained with periodic acid fluorescent Schiff's (PAFS) reagent to examine intracellular mucin. Tissue sections were examined under a 40× objective and images (MagnaFire 2.1 Optronics) were acquired prior to any measurements and analyzed (ImagePro Plus) by blinded investigators (25).

mucin content = settings: previous study (19), cited from earlier work
[2] = system: airway hyperresponsiveness; settings: mild asthmatics, dose escalation protocol; cited from earlier work
BAL eosinophils = test: BAL eosinophil numbers in OVA sensitized and challenged mice; type: in vivo, BALB/c mice
Description: as §1, §2, §3
Brochoalveolar lavage (BAL) fluid was acquired via infusion and recovery of cold PBS (2×1 ml) through the tracheal cannula from euthanized (pentobarbital 0.1 ml of 65 mg/ml) mice. Brochoalveolar lavage total leukocyte count and differentiated cell counts were performed as described (19).
Leukocytes and cytokines were measured in BAL fluid of OVA-sensitized mice 24 hours after the last of five daily nasal challenges with OVA (FIG. 1).

cytokines in BAL fluid = test: Cytokines in BAL fluid of OVA sensitized and challenged mice (multiplex ELISA); type: in vivo, BALB/c mice; settings: Dex 4.0 mg/kg/day, Nad 250 ppm, 24 h after last OVA challenge
Description: as §1, §2, §3
The supernatants from brochoalveolar lavage samples, collected 24 hours after the last challenge with OVA, were provided to Pierce Searchlight, Aushon BioSystems, Inc. in blinded fashion. The concentrations of eotaxin, macrophage-derived chemokine (MDC), thymus and activation regulated chemokine (TARC), interleukin (IL)-1α, IL-5, IL-6, IL-12p70, IL-13, IL-17, IL-23, interferon (IFN), tumor necrosis factor alpha (TNF-a) and transforming growth factor beta (TGF-β1) were measured using multiplex enzyme-linked immunosorbent assay.
Definition of abbreviations in Table 1 are Th1/2/17=T helper (1, 2, or 17) type inflammation; MDC=macrophage-derived chemokine; TARC=thymus and activation regulated chemokine; IL=interleukin-1a, IL-5, IL-6, IL-12p70, IL-13, IL-17, IL-23; IFNγ=interferon gamma; TNFα=tumor necrosis factor alpha; TGFβ1=transforming growth factor betal. The percentage from No Rx is in comparison to No OVA for each cytokine, while percentage of each drug treatment group [Dex (4.0 mg/kg/day); Nad (250 ppm); and Dex+Nad (0.4 mg/kg/day+25 ppm)] is in comparison to No Rx. Values are the means±SEM of data from 4 mice in each group (n=4); and *, indicate significant difference compared to No Rx, P<0.05.

[3] = intermediate doses: dexamethasone 0.4 mg/kg/day IP 8 days, nadolol 25 ppm in chow 28 days, BAL 24 h after last OVA challenge
[4] = low doses: dexamethasone 0.1 mg/kg/day IP 8 days, nadolol 5 ppm in chow 28 days, BAL 24 h after last OVA challenge

Compound	reduction in mucin content ([1]; nadolol 250 ppm)	reduction in eosinophils (BAL eosinophils; [3])	reduction in eosinophils (BAL eosinophils; [4])	IL-1a, percentage in comparison to No Rx (cytokines in BAL fluid)	IL-5, percentage in comparison to No Rx (cytokines in BAL fluid)	IL-6, percentage in comparison to No Rx (cytokines in BAL fluid)	IL-12p70, percentage in comparison to No Rx (cytokines in BAL fluid)	IL-13, percentage in comparison to No Rx (cytokines in BAL fluid)	IL-17, percentage in comparison to No Rx (cytokines in BAL fluid)	IL-23, percentage in comparison to No Rx (cytokines in BAL fluid)	MDC, percentage in comparison to No Rx (cytokines in BAL fluid)	TARC, percentage in comparison to No Rx (cytokines in BAL fluid)	TGFβ1, percentage in comparison to No Rx (cytokines in BAL fluid)	TNFa, percentage in comparison to No Rx (cytokines in BAL fluid)	eotaxin, percentage in comparison to No Rx (cytokines in BAL fluid)	IFNg level in BAL fluid (cytokines in BAL fluid; mean ± SEM, n=4)	IL-1a level in BAL fluid (cytokines in BAL fluid; mean ± SEM, n=4)	IL-5 level in BAL fluid (cytokines in BAL fluid; mean ± SEM, n=4)	IL-6 level in BAL fluid (cytokines in BAL fluid; mean ± SEM, n=4)	IL-12p70 level in BAL fluid (cytokines in BAL fluid; mean ± SEM, n=4)	other results
CC(C)(C)NCC(O)COc1cccc2c1CC(O)C(O)C2 (stereo not shown) [nadolol]	86%	36%	20%	(73%)	(56%)*	(88%)	(140%)	(13%)*	(50%)	(76%)	(27%)*	(19%)*	(45%)*	(53%)*	(80%)	7 ± 1.1 pg/mL	11 ± 5.0 pg/mL	118 ± 33.0 pg/mL	21 ± 10.0 pg/mL	7 ± 1.0 pg/mL	change in mucin content ([1]; all doses of chronic nadolol (5, 25, 250 ppm)): significant decreases; mucin volume density after 7 days of treatment vs vehicle treated control mice ([1]; nadolol 250 ppm, 7 days): significant reductions; day at which maximal effect on mucin volume density is achieved ([1]; nadolol 250 ppm, time course): 22 days; reduction in mucin content (mucin content; 7 days of treatment with nadolol): very modest reduction; reduction in mucin content (mucin content; 28 days of treatment with nadolol): ~90%; airway hyperresponsiveness [2]: reduction in airway hyperresponsiveness; maximal reductions in airway eosinophilia from OVA S/C (BAL eosinophils; nadolol 250 ppm, detected at day 7 of treatment): ~50%; IL-13 level in BAL fluid (cytokines in BAL fluid; mean ± SEM, n=4): 6 ± 2.0 pg/mL; IL-17 level in BAL fluid (cytokines in BAL fluid; mean ± SEM, n=4): 1 ± 0.2 pg/mL; IL-23 level in BAL fluid (cytokines in BAL fluid; mean ± SEM, n=4): 28 ± 4.3 pg/mL; TARC level in BAL fluid (cytokines in BAL fluid; mean ± SEM, n=4): 593 ± 223.5 pg/mL; TGFβ1 level in BAL fluid (cytokines in BAL fluid; mean ± SEM, n=4): 5891 ± 710 pg/mL; TNFa level in BAL fluid (cytokines in BAL fluid; mean ± SEM, n=4): 33 ± 8.0 pg/mL; eotaxin level in BAL fluid (cytokines in BAL fluid; mean ± SEM, n=4): 36 ± 6.0 pg/mL
C[C@@H]1C[C@H]2[C@@H]3CCC4=CC(=O)C=C[C@]4(C)[C@@]3(F)[C@@H](O)C[C@]2(C)[C@@]1(O)C(=O)CO [dexamethasone]	72%	58%	36%	(233%)*	(30%)*	(163%)	(180%)	(27%)*	(0) %	(200%)	(5%)*	(15%)*	(35%)*	(23%)*	(27%)*	90 ± 1.1 pg/mL	35 ± 7.1 pg/mL	63 ± 19.3 pg/mL	39 ± 28.2 pg/mL	9 ± 1.3 pg/mL	reduction in eosinophils (BAL eosinophils; high-dose dexamethasone 4.0 mg/kg/day IP 8 days): 89%; IFNg, percentage in comparison to No Rx (cytokines in BAL fluid): (1500%); IL-13 level in BAL fluid (cytokines in BAL fluid; mean ± SEM, n=4): 12 ± 5.0 pg/mL; IL-17 level in BAL fluid (cytokines in BAL fluid; mean ± SEM, n=4): 2 ± 0.4 pg/mL; IL-23 level in BAL fluid (cytokines in BAL fluid; mean ± SEM, n=4): 74 ± 10.0 pg/mL; MDC level in BAL fluid (cytokines in BAL fluid; mean ± SEM, n=4): 10 ± 1.0 pg/mL; TARC level in BAL fluid (cytokines in BAL fluid; mean ± SEM, n=4): 475 ± 47.0 pg/mL; TGFβ1 level in BAL fluid (cytokines in BAL fluid; mean ± SEM, n=4): 4675 ± 792 pg/mL; TNFa level in BAL fluid (cytokines in BAL fluid; mean ± SEM, n=4): 14 ± 1.0 pg/mL; eotaxin level in BAL fluid (cytokines in BAL fluid; mean ± SEM, n=4): 12 ± 2.0 pg/mL

From patent publication US9730889B2, “Steroid-sparing effects of beta-adrenergic inverse agonists and uses thereof” (University of Houston System, priority 2011, dated 2017)
